# According to a melting point compilation (Tetko et al.; mined from patent text by program, amines drawn as free bases though some values may be those of a salt):
row,Structure (SMILES),melting point [°C]
1,COc1cc(SC(C)C)cc(C#N)c1N,81 to 82
2,CC(C)[C@H](NC(=O)OCc1ccccc1)C(=O)NC(Cc1ccccc1)C(O)C(Cc1ccccc1)NC(=O)[C@@H](NC(=O)c1cccnc1)C(C)C (stereo partly specified),196 to 199
3,N#Cc1nn(-c2c(Cl)cc(C(F)(F)F)cc2Cl)cc1C1C=CCC1 (stereo unspecified),76 to 80
4,CCOc1ccc(NC=C(C(=O)Nc2ccccc2)c2cc(C)no2)cc1,114 to 115
5,c1ccc(Nc2ccnc3[nH]cnc23)cc1,251 to 252
6,Cc1ccc2[nH]c(-c3ccccc3O)cc2c1,211 to 215
7,C#CC[C@H](c1nc2cc(Cl)ccc2c(=O)n1Nc1ccccc1)N(CCCN)C(=O)c1ccc(C)cc1,130 to 133
8,CCCOC(=O)c1c(Cn2ccnc2)nc2cc(OC)c(OC)cc2c1-c1ccc(OC)c(OC)c1,166 to 168
9,CCc1ccc(C(=O)Sc2ccccn2)cc1,48 to 50
10,Cc1[nH]c(-c2ccccc2)c(N)c1C(=O)Nc1ccccc1,271 to 273
11,CCCCc1ccc(S(=O)(=O)Nc2nncs2)cc1,120 to 121
12,CCOC(=O)c1cc(-c2ncc(Cl)cc2F)nn1C,117 to 118
13,Cn1c(=O)cc(-c2cccc(Cl)c2)c2cc(C(=O)c3cccc(I)c3)ccc21,235
14,CN(CCCCCNC(=O)NCCCOc1cccc(CN2CCCCC2)c1)CCN(Cc1ccc(F)cc1)c1ccccn1,63
15,CCCCCCCCCCc1csc2c1sc1c3scc(CCCCCCCCCC)c3sc21,111 to 113
16,COc1c(N2CC(C)[C@@](N)(CF)C2)c(F)cc2c(=O)c(C(=O)O)cn([C@@H]3C[C@@H]3F)c12 (stereo partly specified),167 to 169
17,N#Cc1c(N2CCCCC2)cc(-c2cccc3ccccc23)c2c1-c1ccccc1C2,188 to 190
18,O=C(Nc1cccc(Cl)c1C(=O)O)c1cccc(F)c1,216 to 219
19,CCNC(=O)c1ccc(-n2nnc(C(=O)NC3CC3)c2COCc2ccccc2)c(O)c1,146
20,CC(C)(O)C#Cc1ccc(C(=C2CC(C)(C)CC(C)(C)C2)c2ccc(O)cc2)cc1,186 to 187
21,COC(=O)c1nc(-c2ccc(Cl)c(OC)c2F)c(F)c(N)c1Cl,169 to 170
22,CCN(CCCCc1c[nH]c2ccc(F)cc12)C1COc2c(F)ccc(C(N)=O)c2C1 (stereo unspecified),110
23,Cc1nc(-n2ccc(N3CCNC3=O)cc2=O)sc1C(=O)NCc1ccccc1,> 300
24,COc1ccc2cc3c(Cl)c(C#N)cnc3cc2c1,258 to 260

row,Structure (SMILES),melting point [°C]
1,O=[N+]([O-])c1cccnc1NCc1cccs1,100
2,COc1ccc2cc(C=NCc3ccccc3)ccc2c1,115 to 117
3,COc1ccccc1NC(=O)NCc1nnc(C)n1-c1sc(C)c(C)c1C(=O)c1ccc(Cl)cc1,228 to 230
4,COC(=O)c1cc(C(=O)OC)cc(S(N)(=O)=O)c1,148 to 150
5,CCN1C(=O)Nc2ccc(Cl)cc2C1(O)c1ccccc1 (stereo unspecified),182 to 184
6,CC(C)(C)C(=O)c1cnn2cccnc12,130 to 131
7,CCOC(=O)c1cc2ccccc2n(C(C)C)c1=O,54 to 57
8,CC(=O)OC1CSC(Oc2ccc(-c3c(C)noc3C)nc2)C(OC(C)=O)C1OC(C)=O (stereo unspecified),172
9,Brc1ccc(Nc2nnc(Cc3ccncc3)c3ccccc23)cc1,201 to 202
10,Cc1ccc(S(=O)(=O)NCCN2C(=O)C3(CCCC3)c3ccccc32)cc1,60
11,CN1C(=O)CC[C@]2(C)c3ccc(Sc4ccc5cccc([N+](=O)[O-])c5n4)cc3CC[C@@H]12,199 to 200
12,c1cnc2c(c1)-c1nc(NC3CCNCC3)ncc1-c1ccncc1N2,189 to 191
13,Cn1nc(-c2ccc([N+](=O)[O-])o2)c2c(Cl)ncnc21,195
14,CCC(C)NC(=O)Nc1ccccc1C(=O)OC (stereo unspecified),124
15,CCOC(=O)C(C#N)=CNc1ncc(C)cc1C,156 to 159
16,CCOC(=O)COc1c(Cl)c(O)c2c(c1Cl)OC1(CCCCC1)CC2=O,134 to 135
17,Cc1c([N+](=O)[O-])ccc2c1CCN2,169 to 171
18,"NC(=O)COCCN1CCN(C(c2ccccc2)c2ccc(Cl)cc2)CC1 (single isomer, unassigned; (-))",94.3
19,COC(=O)C[C@@](O)(CCc1ccc(O)cc1)C(C)C,89 to 91
20,CCCc1c(OCc2cccc(C=CC(=O)O)c2)ccc(C(C)=O)c1O,195 to 196
21,CCc1cccc2oc(C(=O)Nc3ccc(-c4ccc(S(=O)(=O)NC(C(=O)O)C(C)C)cc4)cc3)c(C)c12 (stereo unspecified),239 to 241
22,COC(=O)c1ccc(NC(=O)c2cc(C(C)C)c(C(C)C)o2)s1,175 to 177
23,O=C1C(c2ccc(O)cc2)=C(c2ccccc2)c2c(O)cc(O)cc21,223 to 225
24,O=C(CCCN1CCC(Cc2ccccc2)CC1)c1ccc2c(c1)Cc1cc(C(=O)CCCN3CCC(Cc4ccccc4)CC3)ccc1-2,135 to 137

row,Structure (SMILES),melting point [°C]
1,O=C1Nc2ccccc2C(=O)N2CC[C@@H]12,217 to 218
2,CCOC(=O)C(C)=CNc1ccc(OCC)c(C)n1,118 to 122
3,CN1CCN(CCCN(C)C(=O)Cn2c(-c3cccc(Cl)c3)nc3cccnc32)CC1,114 to 117
4,CC(=O)Nc1nc(CCc2ccc(NC(NC(=O)OC(C)(C)C)NC(=O)OC(C)(C)C)cc2)c(Cl)s1,220 to 221
5,CCc1ncc(CCCOc2ccc(-c3nnn(C)n3)cc2)n1C,115 to 117
6,ICc1nc(-c2ccc3c(c2)OCO3)c2cc3c(cc2n1)OCO3,155 to 160
7,CN1CCC(N(CCO)S(=O)(=O)c2ccc(Nc3nccc(Nc4ccc(F)cc4)n3)cc2)CC1,125 to 135
8,CCOc1ccc(-n2c(-c3ccncc3)nc(SC)c(C#N)c2=O)cc1,201 to 204
9,CC(C)[C@H](CO)Cc1ccc(C(C)(C)C)cc1,49 to 51
10,COc1cc(C=O)c(OC)c(C)c1C,69 to 71
11,COc1ccc2[nH]cc(Cc3cccnc3)c2c1,112
12,COc1ccc2[nH]c(C)c(Cc3cc(=O)n(C4CCCCC4)[nH]3)c2c1,99 to 101
13,O=C(O)[C@@H]1CSC(=O)N1Cc1ccccc1,95 to 97
14,CCCN1CCc2c(ccc3[nH]c(=O)c(=O)[nH]c23)C1,340 to 350
15,Fc1ccccc1Cn1cnc2c(NC3CC3)nc(C(F)(F)F)nc21,118 to 119
16,O=C1C(=Cc2sccc2Oc2ccccc2)CCc2cc(OCCn3ccnc3)ccc21,135 to 137
17,COC12CC(C(C)COC(=O)c3[nH]c(C)cc3C)CN(C)C1Cc1cn(C)c3cccc2c13 (stereo unspecified),128 to 130
18,Cc1cc(C)cc(C(N)=O)c1,148 to 149
19,O=S1N=C(NCCCN(Cc2ccccc2)c2ccccn2)C(NCc2cccnc2)=N1 (stereo unspecified),114 to 116
20,COC(=O)C1=C(C)NC(C)=C(C(=O)OCCN2CCN(C(c3ccc(F)cc3)c3ccc(F)cc3)CC2)C1c1cccc([N+](=O)[O-])c1 (stereo unspecified),68 to 72
21,Nc1cccc(C(CC2=NCCN2)c2ccccn2)c1 (stereo unspecified),154 to 155
22,CC(C)CCCC(C)C1CCC2C3CC=C4CCCCC4(C)C3CCC12C (stereo unspecified),90 to 92
23,CCOC(=O)NC1=NN(c2cccc(Cl)c2)C(=O)C1C (stereo unspecified),162
